Assay results as given in BigSolDB 2.1.

Nc1cccnc1
solubility (mole fraction)
Conditions | 288.15 K | 293.15 K | 298.15 K | 303.15 K | 308.15 K | 313.15 K | 318.15 K | 323.15 K
in acetone | 0.155 | 0.194 | 0.244 | 0.305 | 0.38 | 0.468 | 0.565 | 0.668
in n-butyl acetate | 0.432 | 0.481 | 0.537 | 0.591 | 0.65 | 0.712 | 0.77 | 0.835
